Consider 4 compounds from US20250235460A1, “COMBINATION THERAPY USING GLUCOSE-DEPENDENT INSULINOTROPIC POLYPEPTIDE RECEPTOR ANTAGONIST COMPOUNDS AND GLP-1 RECEPTOR AGONIST COMPOUNDS” (Pfizer Inc., priority 2024, published 2025).

Like-named read-outs stand apart in the source and are kept apart here.

This test addresses T1, human Glucose-dependent Insulinotropic Polypeptide Receptor (hGIPR) (Homo sapiens, UniProt P48546).
T1 sequence (P48546 22-466): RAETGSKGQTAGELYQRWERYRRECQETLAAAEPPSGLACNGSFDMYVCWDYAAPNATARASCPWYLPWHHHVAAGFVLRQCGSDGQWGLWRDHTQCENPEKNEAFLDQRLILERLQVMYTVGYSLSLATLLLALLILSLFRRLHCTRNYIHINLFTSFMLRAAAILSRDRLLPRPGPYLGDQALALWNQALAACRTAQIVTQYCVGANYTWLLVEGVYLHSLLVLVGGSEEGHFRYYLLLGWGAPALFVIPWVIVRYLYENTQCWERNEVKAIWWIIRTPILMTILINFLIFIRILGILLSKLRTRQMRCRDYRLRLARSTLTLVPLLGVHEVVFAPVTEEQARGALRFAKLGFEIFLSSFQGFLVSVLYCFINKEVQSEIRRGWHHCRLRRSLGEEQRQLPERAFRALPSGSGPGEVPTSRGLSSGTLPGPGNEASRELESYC
Kind of test: Functional in vitro GIPR antagonist potency assay (cAMP HTRF, CHO-K1 cells stably expressing hGIPR, hGIP stimulation at EC80). The test is classed as cell-based. How it is done:
The functional in vitro antagonist potency for test compounds was determined by monitoring intracellular cyclic adenosine monophosphate (cAMP) levels in Chinese hamster ovary (CHO)—K1 cells stably expressing the human Glucose-dependent Insulinotropic Polypeptide Receptor (hGIPR). Following agonist activation, hGIPR associates with the G-protein complex causing the Gas subunit to exchange bound guanosine diphosphate (GDP) for guanosine triphosphate (GTP), followed by dissociation of the Gas-GTP complex. The activated Gas subunit can couple to downstream effectors to regulate the levels of second messengers or cAMP within the cell. Thereby, determination of intracellular cAMP levels allows for pharmacological characterization. Intracellular cAMP levels are quantitated using a homogenous assay utilizing the Homogeneous Time Resolved Fluorescence (HTRF) technology from Perkin Elmer. […] The two entities compete for binding to a monoclonal anti-cAMP antibody labeled with cryptate. The specific signal is inversely proportional to the concentration of cAMP in the cells.
Test compounds were solubilized to a concentration of 30 mM in 100% dimethyl sulfoxide (DMSO). An 11-point dilution series using 1 in 3.162-fold serial dilutions was created in 100% DMSO with a top concentration of 8 mM. […]
Frozen assay-ready vials (at 1×10^7 cells/vial) of CHO-K1 cells stably expressing the Gs-coupled human GIPR receptor (Eurofins, DiscoverX, Cat No. 95-0146C2) were thawed, counted, and resuspended in assay buffer consisting of Hank's Balanced Salt Solution (HBSS, Lonza Cat No. 10-527) containing 20 mM (4-(2-hydroxyethyl)-1-piperazineethanesulfonic acid (HEPES, Lonza, Cat No. 17-737E), 0.1% bovine serum albumin (BSA, Sigma, Cat No. A7979), and 200 μM 3-isobutyl-1-methylxanthine (IBMX, Sigma, Cat No. 15879) at a density of 4×10^5 cells/mL. Cells were added to assay plate (5 μL/well of 4×10^5 cells/mL stock for 2,000 cells/well final) containing 50 nL of 200×FAC test compound, and incubated at 37° C. […] ([…]: 5% CO2), after which intracellular cAMP levels were quantified as per Perkin Elmer's protocol (5 μL of d2 and then 5 μL cryptate, incubated for 1 hour at room temperature). Emission spectra of samples were measured on a Pherastar plate reader (BMG Labtech Inc) using a HTRF protocol (excitation, 320 nm; emission, 665 nm/620 nm).
([…]: 5% CO2), with a micro-clime lid. […] ([…]: 5% CO2), after which intracellular cAMP levels were quantified and samples measured as described previously. […]
Data were analyzed using the ratio of fluorescence intensity at 620 and 665 nm for each well, extrapolated from the cAMP standard curve to express data as nanomolar (nM) cAMP for each well. […]

Setting [1] is: CHO-K1 cells stably expressing human GIPR, inhibition of hGIP (EC80)-stimulated cAMP, 2 h preincubation.

`CC(C)c1ccc(NC(=O)N2CC[C@H](C)[C@@H]2C(=O)Nc2ccc(-c3ccc(C(=O)O)cc3)cc2)cc1` (single isomer, unassigned) [Compound 34A, 4′-{[(3S)-3-Methyl-1-{[4-(propan-2-yl)phenyl]carbamoyl}-D-prolyl]amino}[1,1′-biphenyl]-4-carboxylic acid or 4′-{[(3R)-3-Methyl-1-{[4-(propan-2-yl)phenyl]carbamoyl}-L-prolyl]amino}[1,1′-biphenyl]-4-carboxylic acid] displayed an IC50 of 10 nM. Take `Cc1cc(NC(=O)N2CCC[C@@H]2C(=O)Nc2ccc(-c3ccc(C(=O)O)nc3)cc2)ccc1C(C)C` [Compound 19A, 5-{4-[(1-{[3-Methyl-4-(propan-2-yl)phenyl]carbamoyl}-D-prolyl)amino]phenyl}pyridine-2-carboxylic acid]: the IC50 under setting [1] was 11 nM.

With `O=C(O)c1ccc(-c2ccc(NC(=O)[C@H]3CCCN3C(=O)Nc3ccc(C(F)(F)F)cc3)nc2)cc1` [Compound 31A, 4-{6-[(1-{[4-(Trifluoromethyl)phenyl]carbamoyl}-D-prolyl)amino]pyridin-3-yl}benzoic acid], the IC50 under setting [1] was 7.8 nM. Take `CC(C)c1ccc(NC(=O)N2CC[C@@H](C)[C@@H]2C(=O)Nc2ccc(-c3ccc(C(=O)O)cc3)cc2)cc1` (single isomer, unassigned) [Compound 35A, 4′-{[(3R)-3-Methyl-1-{[4-(propan-2-yl)phenyl]carbamoyl}-D-prolyl]amino}[1,1′-biphenyl]-4-carboxylic acid or 4′-{[(3S)-3-Methyl-1-{[4-(propan-2-yl)phenyl]carbamoyl}-L-prolyl]amino}[1,1′-biphenyl]-4-carboxylic acid]: half-maximal inhibition (IC50) was put at 4.6 nM.
